The values that follow come from US7456274B2, “Inhibition of metallo-β-lactamase” (priority 2003, dated 2008).

The target of experiment [1] is T1, bovine carboxypeptidase A (Bos taurus, UniProt P00730).
T1 construct: purchased Sigma
T1 sequence (P00730 111-419): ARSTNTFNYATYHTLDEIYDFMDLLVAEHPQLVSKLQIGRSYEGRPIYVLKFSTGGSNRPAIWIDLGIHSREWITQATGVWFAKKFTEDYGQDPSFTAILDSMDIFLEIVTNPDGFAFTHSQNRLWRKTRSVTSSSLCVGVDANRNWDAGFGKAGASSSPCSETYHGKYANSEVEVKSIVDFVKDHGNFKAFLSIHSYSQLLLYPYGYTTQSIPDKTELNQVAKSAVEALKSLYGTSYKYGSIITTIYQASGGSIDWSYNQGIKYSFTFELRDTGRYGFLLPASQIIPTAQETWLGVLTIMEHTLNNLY
Description: Bovine carboxypeptidase A assay (hippuryl-L-phenylalanine hydrolysis), specificity test. In kind it is biochemical. The following applies: 25 nM; 1 mM hippuryl-L-phenylalanine; 25° C., pH=7.5. How it is done:
Method for assay of bovine carboxypeptidase A. The assay of bovine carboxypeptidase A is based on the method of Folk and Schirmer (1963). The rate of hydrolysis of hippuryl-L-phenylalanine is determined by monitoring the increase in absorbance at 254 nm ([…], pH=7.5). The enzyme was dissolved in 10% lithium chloride to a concentration of 1-3 units per mL. Hippuryl-L-phenylalanine (0.001 M) was dissolved in 0.05 M TrisHCl, pH=7.5 with 0.5 M sodium chloride. In a 1 cm of cuvette, 1.0 mL of substrate was added and incubated in the spectrophotometer at 25° C. for 3-4 minutes to reach temperature equilibration and establish blank rate. Fifty μL of diluted enzyme was added to record increase in A254. The enzyme was preincubated with/without the inhibitor in the buffer for 15 min. at 25° C.

Experiment [2] deals with B. cereus 5/B/6 metallo-β-lactamase (Bacillus cereus, UniProt P14488). In kind it is biochemical. To be noted: for time dependence of the reversible inhibition: 50 mM MOPS, cephalosporin C; for time dependence of the reversible inhibition / IC50: pH=7.0; for inhibition pattern from steady-state kinetic study: Lineweaver-Burk plot; for IC50: enzyme preincubated 15 min at 30° C. in 50 mM MOPS, 4 mM cephalosporin C.
Sequence of B. cereus 5/B/6 metallo-β-lactamase (P14488 30-256): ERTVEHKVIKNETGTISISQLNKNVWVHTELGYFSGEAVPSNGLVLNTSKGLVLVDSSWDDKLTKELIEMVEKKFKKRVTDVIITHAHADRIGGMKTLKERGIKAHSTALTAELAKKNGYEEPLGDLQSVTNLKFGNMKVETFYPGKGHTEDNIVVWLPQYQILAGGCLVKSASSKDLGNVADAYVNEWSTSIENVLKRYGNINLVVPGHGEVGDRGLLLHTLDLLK

In experiment [3] the target is metallo-β-lactamase from B. fragilis (Bacteroides fragilis, UniProt P25910). The following applies: NMR characterization; Scrofani et al. (1999); cited from earlier work.
Sequence of metallo-β-lactamase from B. fragilis (P25910 19-249): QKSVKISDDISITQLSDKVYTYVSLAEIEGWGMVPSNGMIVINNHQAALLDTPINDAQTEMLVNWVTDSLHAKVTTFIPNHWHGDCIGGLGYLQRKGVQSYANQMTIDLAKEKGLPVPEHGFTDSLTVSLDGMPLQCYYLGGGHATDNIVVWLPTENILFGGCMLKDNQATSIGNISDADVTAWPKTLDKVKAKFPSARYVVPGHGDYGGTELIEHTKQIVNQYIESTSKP
The target in experiment [4] is metallo-β-lactamase from Stenotrophomonas maltophilia (Stenotrophomonas maltophilia, UniProt P52700). To be noted: Yang and Crowder (1999); cited from earlier work.
Sequence of metallo-β-lactamase from Stenotrophomonas maltophilia (P52700 34-290): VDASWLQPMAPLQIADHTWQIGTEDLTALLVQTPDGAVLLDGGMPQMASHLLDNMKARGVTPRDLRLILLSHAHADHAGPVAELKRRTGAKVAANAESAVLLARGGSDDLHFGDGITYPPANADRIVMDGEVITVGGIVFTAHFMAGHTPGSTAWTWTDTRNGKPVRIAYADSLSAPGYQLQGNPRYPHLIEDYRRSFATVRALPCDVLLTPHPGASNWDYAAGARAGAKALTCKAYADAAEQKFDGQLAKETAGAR
For another experiment, the system named is class B β-lactamases. The following applies: cited from earlier work.
The target of experiment [5] is metallo-β-lactamases (Bacillus cereus enzyme) (Bacillus cereus, UniProt P04190). To be noted: Mollard et al. (2001); cited from earlier work.
Sequence of metallo-β-lactamases (Bacillus cereus enzyme) (P04190 31-257): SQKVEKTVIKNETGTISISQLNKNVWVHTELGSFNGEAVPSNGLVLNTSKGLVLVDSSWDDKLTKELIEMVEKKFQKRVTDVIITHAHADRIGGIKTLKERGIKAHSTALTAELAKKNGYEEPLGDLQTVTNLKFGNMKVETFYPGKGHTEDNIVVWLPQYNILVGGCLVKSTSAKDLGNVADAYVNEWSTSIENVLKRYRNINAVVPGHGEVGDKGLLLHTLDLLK
The mark [6] stands for this setting: intercept replot of Lineweaver-Burk data, read-out: Ki′ (dissociation constant for the inhibitor from the enzyme-substrate-inhibitor complex).
The mark [7] stands for this setting: slope replot of Lineweaver-Burk data, read-out: Ki (dissociation constant for the inhibitor from the enzyme-inhibitor complex).

Entries after “also recorded” stand apart in the source; their conditions may differ. Where two headings read alike, the source gives them in different places.

On to “5′-d(AACCAAACTTGGATCGGTGCACATGTCGAA)-3′ [30-mer]”, for which the “effect on the activity of the carboxypeptidase A” value in experiment [1] is “no effect; also recorded: did not show any inhibition”. Besides, the “time dependence of the reversible inhibition” value in experiment [2] (0.5 nM the 30-mer) is listed as “time-independent; also recorded: not time-dependent”. In experiment [2], the “inhibition pattern from steady-state kinetic study” value (“inhibition pattern” for short) is on record as “noncompetitive inhibition” and the IC50 came to 1.2 nM. Moreover, the Ki in experiment [2] (setting [6]) is 11 nM. The inhibition constant (Ki) in experiment [2] (setting [7]) came to 0.92 nM.
As for 5′-d(CCAAACTTGG)-3′ [10-mer], in experiment [1], the “effect on the activity of the carboxypeptidase A” value is given as “no effect; also recorded: did not show any inhibition”. Moreover, in experiment [2] (1.0 nM of the 10-mer), the “time dependence of the reversible inhibition” value was “time-independent; also recorded: not time-dependent”. Further, the “inhibition pattern” value in experiment [2] is “noncompetitive inhibition”. For the same compound, in experiment [2] (vs. Mollard et al. (2001)), the “fold lower Ki than the Ki reported for R-thiomandelic acid” value is 290 fold.
As to `OCCS` [2-mercaptoethanol, reference compound], in experiment [2], the “inhibition pattern” value is reported as “noncompetitive inhibition” and the IC50 was found to be 4000 nM. The Ki in experiment [2] (setting [6]) came to 4000 nM. Also, the Ki in experiment [2] (setting [7]) came out at 2000 nM.
Regarding `CC1(C)SCN(C(=O)[C@@H](CS)Cc2ccccc2)[C@H]1C(=O)O` [3-[2′-(S)-benzyl-3′-mercaptopropanoyl]-4-(S)-carboxy-5,5-dimethylthiazolidine], in experiment [3], the “binding to metallo-β-lactamase” value is reported as ““tightly” binds”.
In the case of `O=C(O)CN(CCN(CC(=O)O)CC(=O)O)CC(=O)O` [EDTA, reference compound], in experiment [2], the “inhibition pattern” value is “noncompetitive inhibition” and it took 3100 nM to reach half-maximal inhibition (IC50). In experiment [2] (setting [6]), the Ki came out at 2900 nM. Further, the inhibitory constant (Ki) in experiment [2] (setting [7]) turned out to be 750 nM.
As to `O=C(Cc1ccccc1)NCCS` [N-(2′-mercaptoethyl)-2-phenylacetamide], in experiment [4], the inhibition constant Ki is 50000 ± 3000 nM and the type of inhibition result is on record as “competitive inhibitors”.
For the compound `O=C(O)[C@H]1/C(=C/CO)O[C@@H]2CC(=O)N21` [clavulanic acid], the “inhibition of class B β-lactamases” value in the experiment with class B β-lactamases is listed as “do not inhibit”.
With `O=C1C[C@H]2SC=CN12` [penem], in the experiment with class B β-lactamases, the “inhibition of class B β-lactamases” value was “do not inhibit”.
On to N-benzylacetyl-D-alanylthioacetic acid, for which, in experiment [4], the Ki was 1600 ± 300 nM and the type of inhibition result is recorded as “competitive inhibitors”.
Turning to R-thiomandelic acid, in experiment [5], the Ki is 90 nM.

A word on the IC50: it is the concentration at which inhibition is half-maximal. Read a high IC50 as weaker potency. The Ki is a dissociation constant, usually derived from enzyme kinetics or from competition with a known ligand.
